Several values for one entry are separate records, joined by “and”; a condition that tells them apart may be missing. Identical values can stand only once. Like-named read-outs stand apart in the source and are kept apart here.
How the values were obtained:
[1] = tested on: T1, Plasmodium falciparum Dd2-attB-ScDHODH (transgenic line expressing yeast DHODH), asexual blood stages; experiment: organism not typed; design: replicate k of 3 (each line is one of three independent assays; the three lines of one compound and parasite line follow each other)
T1 construct: Dd2-attB-ScDHODH, the transgenic line that expresses yeast DHODH
Outline: (§1)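 Three independent runs, compound subset only; parental vs ScDHODH line compared by two-sided Student's t-test.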

[2] = tested on: T2, Plasmodium falciparum Dd2-attB (parental line), asexual blood stages; experiment: microbe, parasite or virus in culture; design: species or system P. falciparum Dd2-attB in human erythrocytes; SYBR Green-I proliferation assay, Dd2-attB parental line, asexual blood stages; details: Plasmodium falciparum, DD2, Erythrocyte, 72 h, read-out: Calculated / Average Log AC50 (M), mean of replicates, 72 h (converted)
T2 construct: Dd2-attB, the isogenic parental line

[3] = tested on: T2, Plasmodium falciparum Dd2-attB (parental line), asexual blood stages; experiment: microbe, parasite or virus in culture; design: replicate k of 3 (each line is one of three independent assays; the three lines of one compound and parasite line follow each other); details: n = 1; for Individual replicates / Log AC50 (M): 72 h; for AC50: Plasmodium falciparum, DD2, 72 h, read-out: Individual replicates / Log AC50 (converted)
Outline: as §1

[4] = 72 h; n = 1; read-out: Individual replicates / Log AC50 (converted)

SMILES | Individual replicates / Log AC50 (M) ([1]; 72 h, n = 1) | AC50 [1, 4] [µM] | AC50 [2] [M] | Individual replicates / Log AC50 (M) [3] | AC50 [3] [µM] | Individual replicates / Log AC50 (M) ([1]; 72 h; n = 1)
Cc1ccccc1Nc1c(-c2ccccc2O)nc2sccn12 [NCGC00105919-03] | -4.8486 Log AC50 (M) and -5.0486 Log AC50 (M) | 8.94 | 1.08e-05 | -4.8986 Log AC50 (M) and -5.0986 Log AC50 (M) | 12.6 | –
Cc1cccc(C)c1Nc1c(-c2ccccn2)nc2ccc(Cl)cn12 [NCGC00106608-03] | – | 15.9 | 1.42e-05 | -4.7986 Log AC50 (M) and -4.9486 Log AC50 (M) | 15.9 | -4.7986 Log AC50 (M)
Cc1ccc(NC(=O)C(N[S+](=O)([O-])c2ccc3c(c2)CCC(=O)N3)c2ccccc2)cc1C (centres unmarked) [NCGC00110290-01] | – | 8.94 | 1.59e-05 | – | 17.8 | –
COc1ccc(NCc2cccn2-c2nnc(N3CCC(C)CC3)s2)c(OC)c1 [NCGC00127038-02] | -4.7486 Log AC50 (M) and -4.7986 Log AC50 (M) | 14.2 | 1.26e-05 | -4.9986 Log AC50 (M) | 17.8 | –
COc1ccc(-n2ncc(C(=O)N3CCc4ccccc4C3)c2C2CCN(C(=O)OC(C)(C)C)CC2)cc1 [NCGC00127123-02] | -4.7986 Log AC50 (M) and -4.8486 Log AC50 (M) | 14.2 | 7.97e-06 | -5.2486 Log AC50 (M) and -4.9986 Log AC50 (M) | 8.94 | –
CCCCN1CCCc2cc(CN(CCCN3CCOCC3)C(=O)Nc3ccc(OCC)cc3)ccc21 [NCGC00140593-02] | -4.8486 Log AC50 (M) and -4.7986 Log AC50 (M) | 17.8 | 1.36e-05 | -4.9986 Log AC50 (M) and -4.7986 Log AC50 (M) | 15.9 | –
CN(Cc1ccco1)Cc1ccc(O)c2ncccc12 [NCGC00183374-01] | -4.7986 Log AC50 (M) | 12.6 | 1.47e-05 | – | 8.94 | –
O=C(Nc1ccc(O)c2ncccc12)c1ccccc1F [NCGC00184884-01] | -4.8486 Log AC50 (M) and -5.0986 Log AC50 (M) | – | 7.38e-06 | -5.2486 Log AC50 (M) and -4.9486 Log AC50 (M) | 6.33 | –
O=[S+]([O-])(Nc1ccc(O)c2ncccc12)c1ccccc1F [NCGC00184887-02] | -4.9486 Log AC50 (M) and -4.8486 Log AC50 (M) | – | 1e-05 | -4.8986 Log AC50 (M) and -5.0486 Log AC50 (M) (2×) | – | –
NC(=O)c1ccc(O)c2ncccc12 [NCGC00184888-01] | – | 20 | 1.59e-05 | – | 14.2 | –
O=[N+]([O-])c1ccccc1NCc1ccc(O)c2ncccc12 [NCGC00184896-01] | -5.0486 Log AC50 (M) | 12.6 | 9.65e-06 | -4.7986 Log AC50 (M) and -5.0986 Log AC50 (M) and -5.1486 Log AC50 (M) | – | –
Oc1ccc(/C=C/c2c(F)cccc2F)c2cccnc12 [NCGC00184904-01] | -4.7486 Log AC50 (M) and -4.7986 Log AC50 (M) | – | 1e-05 | -5.0986 Log AC50 (M) and -5.0486 Log AC50 (M) | 14.2 | –
Oc1ccc(CCc2ccccc2F)c2cccnc12 [NCGC00184905-01] | – | 15.9 | 1.31e-05 | -5.1986 Log AC50 (M) and -4.7486 Log AC50 (M) | – | –
CN(C)c1cnc2c(O)ccc([S+](=O)([O-])Nc3ccccc3F)c2c1 [NCGC00189501-01] | -4.9986 Log AC50 (M) and -4.7986 Log AC50 (M) | 14.2 | 9.29e-06 | -5.0986 Log AC50 (M) | 12.6 | –
COc1cccc(NCc2ccc(O)c3ncccc23)n1 [NCGC00241024-01] | -4.8486 Log AC50 (M) | 12.6 | 1.13e-05 | -4.8986 Log AC50 (M) and -5.0486 Log AC50 (M) | 12.6 | –
Oc1ccc(CNc2nccc3ccccc23)c2cccnc12 [NCGC00241025-01] | -5.2486 Log AC50 (M) and -4.7486 Log AC50 (M) | – | 7.67e-06 | -5.2486 Log AC50 (M) and -4.8986 Log AC50 (M) and -5.1986 Log AC50 (M) | – | –
Oc1ccc(CNc2cc(C(F)(F)F)ccn2)c2cccnc12 [NCGC00241027-01] | -4.8486 Log AC50 (M) | 7.1 | 1e-05 | -5.0986 Log AC50 (M) and -5.0486 Log AC50 (M) | 14.2 | –
Oc1ccc(CNc2cc(Br)ccn2)c2cccnc12 [NCGC00241030-01] | -5.2486 Log AC50 (M) and -5.1986 Log AC50 (M) and -4.8986 Log AC50 (M) | – | 6.58e-06 | -5.2486 Log AC50 (M) and -5.0486 Log AC50 (M) | 5.64 | –

SMILES | Individual replicates / Log AC50 (M) ([1]; 72 h, n = 1) | AC50 [1, 4] [µM] | AC50 [2] [M] | Individual replicates / Log AC50 (M) [3] | AC50 [3] [µM] | Individual replicates / Log AC50 (M) ([1]; 72 h; n = 1)
COC(=O)c1ccc(O)c2ncc(N3CCN(C)CC3)cc12 [NCGC00241034-01] | -5.2486 Log AC50 (M) and -5.2986 Log AC50 (M) and -4.8486 Log AC50 (M) | – | 6.09e-06 | -5.2986 Log AC50 (M) and -5.0486 Log AC50 (M) | 5.03 | –
NC1CCN(c2cnc3c(O)ccc(C(=O)O)c3c2)CC1 [NCGC00241035-01] | – | 17.8 | 1.42e-05 | -4.7986 Log AC50 (M) and -4.9986 Log AC50 (M) | 17.8 | –
CCOC(=O)c1ccc(O)c2ncc(N3CCNCC3)cc12 [NCGC00241046-01] | -5.3486 Log AC50 (M) | 5.03 | 5.86e-06 | -5.2986 Log AC50 (M) and -5.0986 Log AC50 (M) | 5.03 | –
CCOC(=O)c1ccc(O)c2ncc(N3CCC(C(=N)N)CC3)cc12 [NCGC00241051-01] | -4.7486 Log AC50 (M) and -4.8986 Log AC50 (M) | – | 1.08e-05 | -5.1486 Log AC50 (M) | 12.6 | –
CCOC(=O)c1ccc(O)c2ncc(NCC3CCCN(CCc4ccccc4)C3)cc12 (centres unmarked) [NCGC00241755-01] | -5.0986 Log AC50 (M) | 6.33 | 8.28e-06 | -5.1486 Log AC50 (M) and -4.8986 Log AC50 (M) | 6.33 | –
O=C(O)c1ccc(O)c2ncc(NCC3CCCN(CCc4ccccc4)C3)cc12 (centres unmarked) [NCGC00241759-01] | -4.8486 Log AC50 (M) | 8.94 | 1.04e-05 | -5.0486 Log AC50 (M) | 7.1 | –
CN1CCN(C(=O)c2ccc(-c3cc(O)c4ncccc4c3)cc2)CC1 [NCGC00244524-01] | -5.0486 Log AC50 (M) | 15.9 | 1.04e-05 | -5.0486 Log AC50 (M) and -5.0986 Log AC50 (M) | 15.9 | –
CN(C)CCCNC(=O)c1cccc(-c2cc(O)c3ncccc3c2)c1 [NCGC00244527-01] | -4.7986 Log AC50 (M) | 8.94 | 1.22e-05 | -5.0486 Log AC50 (M) and -4.8486 Log AC50 (M) | 14.2 | –
O=C(NCCCN1CCCCC1)c1cccc(-c2cc(O)c3ncccc3c2)c1 [NCGC00244529-01] | -4.7986 Log AC50 (M) | 8.94 | 1.04e-05 | -5.0486 Log AC50 (M) | 14.2 | –
CN(C)CC(C)(C)CNC(=O)c1cccc(-c2cc(O)c3ncccc3c2)c1 [NCGC00244532-01] | -4.7486 Log AC50 (M) and -5.0986 Log AC50 (M) | – | 1.17e-05 | -4.7986 Log AC50 (M) and -5.1486 Log AC50 (M) and -4.8486 Log AC50 (M) | – | –
O=C(NCc1cccnc1)c1cccc(-c2cc(O)c3ncccc3c2)c1 [NCGC00244537-01] | -4.8486 Log AC50 (M) | 8.94 | 1.31e-05 | -4.7986 Log AC50 (M) | 7.97 | –
CN(C)CCCOc1ccc(-c2cc(O)c3ncccc3c2)cn1 [NCGC00247741-01] | -4.7486 Log AC50 (M) and -5.0486 Log AC50 (M) | – | 9.65e-06 | -4.7986 Log AC50 (M) and -5.1486 Log AC50 (M) and -5.0986 Log AC50 (M) | – | –
CN(C)CCCN1CCN(C(=O)c2cccc(-c3cc(O)c4ncccc4c3)c2)CC1 [NCGC00247746-01] | – | 15.9 | 1.53e-05 | -4.7486 Log AC50 (M) | 11.3 | –
CN(C)CCNC(=O)c1ccc(-c2cc(O)c3ncccc3c2)cc1 [NCGC00247749-01] | – | 17.8 | 1.13e-05 | -4.9986 Log AC50 (M) and -5.0486 Log AC50 (M) | 15.9 | –
O=C(O)c1ccc(O)c2ncc(N3CCCN(CCc4cccc5ccccc45)CC3)cc12 [NCGC00247751-02] | -5.2486 Log AC50 (M) and -4.7486 Log AC50 (M) | – | 9.65e-06 | -5.1486 Log AC50 (M) | 6.33 | –
O=C(c1cccc(-c2cc(O)c3ncccc3c2)c1)N1CCN(CCCN2CCOCC2)CC1 [NCGC00247764-01] | – | 17.8 | 2e-05 | – | 17.8 | –
Cc1ccccc1CN1CCN(c2cnc3c(O)ccc(C(=O)O)c3c2)CC1 [NCGC00249382-01] | – | 15.9 | 1.65e-05 | – | 14.2 | –

Reference: article PMC7822874, “Chemoprotective antimalarials identified through quantitative high-throughput screening of Plasmodium blood and liver stage parasites” (Scientific Reports, 2021)
